Measured values: PMC5908784, “Extracellular loops 2 and 3 of the calcitonin receptor selectively modify agonist binding and efficacy” (Biochemical Pharmacology, 2018)
Changes are numbered by the printed parent chain. Where a SMILES comes first, the peptide text is derived from it. Bridges are numbered along the chain shown (N, C = ends).

Key:
Test in all cases: IP1 accumulation
Type in all cases: cell-based
Details in all cases: mean ± S.E.M.; for Emax: IP1 maximal response, SEM
hCTR Y374A = target: T1, hCTR Y374A (Homo sapiens, UniProt P30988, Y374A)
T1 construct: c-Myc (N); expressed in transfected cells
T1 sequence (P30988 25-474 Y374A): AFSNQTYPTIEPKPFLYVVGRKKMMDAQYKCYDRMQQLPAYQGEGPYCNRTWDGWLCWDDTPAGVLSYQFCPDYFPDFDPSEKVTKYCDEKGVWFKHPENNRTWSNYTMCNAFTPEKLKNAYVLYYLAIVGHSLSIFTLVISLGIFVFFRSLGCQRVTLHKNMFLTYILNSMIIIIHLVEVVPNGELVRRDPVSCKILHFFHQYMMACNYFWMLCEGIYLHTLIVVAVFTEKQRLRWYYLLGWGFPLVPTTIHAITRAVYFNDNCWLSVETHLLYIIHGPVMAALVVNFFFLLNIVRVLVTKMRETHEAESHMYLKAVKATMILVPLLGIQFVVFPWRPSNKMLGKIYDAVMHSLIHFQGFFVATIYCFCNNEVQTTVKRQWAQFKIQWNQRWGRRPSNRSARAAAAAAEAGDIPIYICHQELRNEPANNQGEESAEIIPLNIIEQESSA
Experimental: (§1) Cells (2.5 × 10^4 cells/well) were plated into 96 well trays and cultured overnight. Cells were stimulated with increasing concentration of ligands for 60 min in the presence of LiCl. Samples were lysed and endogenous IP1 was measured using an IP-One HTRF® assay kit (CisBio) as specified by the manufacturer. Data were normalized to the maximal response elicited by 100 μM of ATP.
(§2) Data were corrected for radioligand occupancy using the Cheng-Prusoff equation in Prism; as such data are reported as pKi. Emax and EC50 were estimated from concentration-response curves using with a 3-parameter logistic equation in Prism (v7). These values are a composite of functional affinity, efficacy and stimulus response coupling. […] Significance was accepted at P < 0.05.

hCTR Y284A = target: T2, hCTR Y284A (Homo sapiens, UniProt P30988, Y284A)
T2 construct: expressed in transfected cells
T2 sequence (P30988 25-474 Y284A): T1 sequence (P30988 25-474 Y374A) with Y260A, A350Y
Experimental: as §1, §2

hCTR E294A = target: T3, hCTR E294A (Homo sapiens, UniProt P30988, E294A)
T3 construct: c-Myc (N); expressed in transfected cells
T3 sequence (P30988 25-474 E294A): T1 sequence (P30988 25-474 Y374A) with E270A, A350Y
Experimental: as §1, §2

hCTR W361A = target: T4, hCTR W361A (Homo sapiens, UniProt P30988, W361A)
T4 construct: expressed in transfected cells
T4 sequence (P30988 25-474 W361A): T1 sequence (P30988 25-474 Y374A) with W337A, A350Y
Experimental: as §1, §2

hCTR L291A = target: T5, hCTR L291A (Homo sapiens, UniProt P30988, L291A)
T5 construct: expressed in transfected cells
T5 sequence (P30988 25-474 L291A): T1 sequence (P30988 25-474 Y374A) with L267A, A350Y
Experimental: as §1, §2

[1] = IP1, CV1-FlpIn cells, 60 min, LiCl

Row | EC50 (hCTR Y374A; [1]) | EC50 (hCTR Y284A; [1]) | EC50 (hCTR E294A; [1]) | EC50 (hCTR W361A; [1]) | EC50 (hCTR L291A; [1]) | Compound | Emax (hCTR Y374A) | Emax (hCTR Y284A) | Emax (hCTR E294A) | Emax (hCTR W361A) | Emax (hCTR L291A)
1 | – | – | – | – | – | CC[C@H](C)[C@H](NC(=O)[C@H](C)NC(=O)[C@@H](NC(=O)[C@H](CCC(N)=O)NC(=O)[C@@H]1CCCN1C(=O)[C@H](Cc1ccccc1)NC(=O)[C@@H](NC(=O)[C@H](Cc1c[nH]cn1)NC(=O)[C@H](Cc1ccccc1)NC(=O)[C@H](CCCCN)NC(=O)[C@H](CC(N)=O)NC(=O)[C@H](Cc1ccccc1)NC(=O)[C@H](CC(=O)O)NC(=O)[C@H](CCC(N)=O)NC(=O)[C@@H](NC(=O)[C@H](Cc1ccc(O)cc1)NC(=O)[C@@H](NC(=O)CNC(=O)[C@H](CC(C)C)NC(=O)[C@H](CCSC)NC(=O)[C@@H]1CSSC[C@H](N)C(=O)NCC(=O)N[C@@H](CC(N)=O)C(=O)N[C@@H](CC(C)C)C(=O)N[C@@H](CO)C(=O)N[C@@H]([C@@H](C)O)C(=O)N1)[C@@H](C)O)[C@@H](C)O)[C@@H](C)O)[C@@H](C)O)C(=O)NCC(=O)N[C@H](C(=O)NCC(=O)N[C@@H](C)C(=O)N1CCC[C@H]1C(N)=O)C(C)C [hCT] | 110 ± 9% | 81 ± 12% | 57 ± 6% | 89 ± 9% | 71 ± 16%
2 | 12.3 nM | 1.15 nM | 1.29 nM | 8.32 nM | 1.62 nM | CSCC[C@H](NC(=O)CNC(=O)[C@H](CO)NC(=O)[C@H](Cc1ccccc1)NC(=O)[C@H](CCCNC(=N)N)NC(=O)[C@H](Cc1c[nH]cn1)NC(=O)[C@H](Cc1ccccc1)NC(=O)[C@H](CC(N)=O)NC(=O)[C@H](CC(N)=O)NC(=O)[C@H](CC(C)C)NC(=O)[C@H](CC(N)=O)NC(=O)[C@H](CCCNC(=N)N)NC(=O)[C@H](Cc1c[nH]c2ccccc12)NC(=O)[C@H](Cc1ccc(O)cc1)NC(=O)[C@H](C)NC(=O)[C@H](CO)NC(=O)[C@H](CC(C)C)NC(=O)[C@@H](NC(=O)[C@@H]1CSSC[C@H](N)C(=O)N[C@@H](CO)C(=O)N[C@@H](CC(N)=O)C(=O)N[C@@H](CC(C)C)C(=O)N[C@@H](CO)C(=O)N[C@@H]([C@@H](C)O)C(=O)N1)C(C)C)C(=O)NCC(=O)N[C@@H](Cc1ccccc1)C(=O)NCC(=O)N1CCC[C@H]1C(=O)N[C@@H](CCC(=O)O)C(=O)N[C@H](C(=O)N1CCC[C@H]1C(N)=O)[C@@H](C)O [pCT] (H-CSNLSTCVLSAYWRNLNNFHRFSGMGFGPETP-NH2; disulfide 1-7) | 106 ± 6% | 94 ± 6% | 119 ± 8% | 80 ± 6% | 67 ± 6%
3 | – | – | – | – | – | CC(C)C[C@H](NC(=O)[C@H](CCCCN)NC(=O)CNC(=O)[C@H](CC(C)C)NC(=O)[C@@H](NC(=O)[C@@H]1CSSC[C@H](N)C(=O)N[C@@H](CO)C(=O)N[C@@H](CC(N)=O)C(=O)N[C@@H](CC(C)C)C(=O)N[C@@H](CO)C(=O)N[C@@H]([C@@H](C)O)C(=O)N1)C(C)C)C(=O)N[C@@H](CO)C(=O)N[C@@H](CCC(N)=O)C(=O)N[C@@H](CCC(=O)O)C(=O)N[C@@H](CC(C)C)C(=O)N[C@@H](Cc1c[nH]cn1)C(=O)N[C@@H](CCCCN)C(=O)N[C@@H](CC(C)C)C(=O)N[C@@H](CCC(N)=O)C(=O)N[C@H](C(=O)N[C@@H](Cc1ccc(O)cc1)C(=O)N1CCC[C@H]1C(=O)N[C@@H](CCCNC(=N)N)C(=O)N[C@H](C(=O)N[C@@H](CC(N)=O)C(=O)N[C@H](C(=O)NCC(=O)N[C@@H](CO)C(=O)NCC(=O)N[C@H](C(=O)N1CCC[C@H]1C(N)=O)[C@@H](C)O)[C@@H](C)O)[C@@H](C)O)[C@@H](C)O [sCT] | 102 ± 6% | 118 ± 7% | 84 ± 5% | 108 ± 6% | 85 ± 4%
